# Entries after “also recorded” stand apart in the source; their conditions may differ.
# How the values were obtained:
# [1] = tested on: BmGr9 Q443, F444, and Q445 mutants; assay: GCaMP assay, L-sorbose on BmGr9 Q443, F444 and Q445 mutants; type: cell-based, Bombyx mori; settings: author rebuttal
# BmGr9 [2] = target: T1, BmGr9 (Bombyx mori, UniProt B3GTD7); assay: Intrinsic tryptophan fluorescence of detergent-solubilized purified BmGr9; type: binding; settings: purified BmGr9 in digitonin, n = 4, 95% CI in parentheses
# T1 sequence (B3GTD7 entry or part of it): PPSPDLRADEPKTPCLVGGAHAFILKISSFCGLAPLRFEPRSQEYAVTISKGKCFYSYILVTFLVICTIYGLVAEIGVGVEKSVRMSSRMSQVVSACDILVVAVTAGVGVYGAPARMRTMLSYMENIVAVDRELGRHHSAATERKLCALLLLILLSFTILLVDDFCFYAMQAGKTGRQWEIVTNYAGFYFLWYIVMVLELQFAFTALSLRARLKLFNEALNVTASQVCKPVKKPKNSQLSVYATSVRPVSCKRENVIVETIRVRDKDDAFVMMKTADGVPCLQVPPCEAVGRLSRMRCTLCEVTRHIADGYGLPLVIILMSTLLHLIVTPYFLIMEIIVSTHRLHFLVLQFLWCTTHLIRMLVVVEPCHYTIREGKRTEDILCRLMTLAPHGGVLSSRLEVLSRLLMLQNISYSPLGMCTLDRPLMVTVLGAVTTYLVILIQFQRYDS
# BmGr9 [3] = target: T1, BmGr9; settings: electrophysiology; ref Sato et al. PNAS, 2011; cited from earlier work
# BmGr9 [4] = target: T1, BmGr9; assay: Cell-based GCaMP calcium flux assay, wild-type BmGr9
structure (smiles),measurement,setting,value
O=C(CO)[C@@H](O)[C@H](O)[C@@H](O)CO [L-sorbose],activation of BmGr9 mutants by L-sorbose,[1],does not appear that L-sorbose can activate any of these BmGr9 mutants
same,Kd,"BmGr9 [2]; KD (apparent affinity, tryptophan fluorescence)",63 mM
same,"KD (apparent affinity, tryptophan fluorescence)",BmGr9 [2],affinity close to that of D-fructose
same,activation of BmGr9 in oocytes,BmGr9 [3],not to activate
same,Activation of BmGr9 (change in fluorescence) by sweet compound,"BmGr9 [4]; 100 mM sweet compound, HEK293 cells with BmGr9 plus GCaMP vs GCaMP only",not statistically different than GCaMP alone; also recorded: did not activate BmGr9 significantly
same,maximum activity in dose-response,"BmGr9 [4]; titration, n = 5, vs GCaMP-only control wells",less than control wells with GCaMP only

# Source: paper PMC11062906 (Nature, 2024)
